Reference: US20100310553A1, “Compositions and Methods for Controlling Hepatitis C Virus Infection” (priority 2006, published 2010)

Key:
HCV [1] = test: HCV production after treatment of HCV-infected cells with commercial inhibitors of lipoprotein assembly and secretion, RPA; format: cell-based, Hepatitis C virus; conditions: increasing concentrations; positive-strand HCV RNA by RPA, 3 days p.i.
Method: These inhibitors were used to treat HCV-infected cells. The culture supernatants were then used to infect naïve Huh7.5 cells. At 3 days p.i., the levels of positive-strand HCV RNA were determined by RPA.

HCV [2] = test: HCV production: infectivity of media of CP-346086-treated, HCV-infected Huh7.5 cells on naive Huh7.5 cells; format: cell-based, Hepatitis C virus
Method: (§1) With reference to FIGS. 14A-14F, studies were carried out to determine the effects of an MTP inhibitor, CP-346086, on lipoprotein production/secretion and HCV production. […] To determine the effect of CP-346086 on HCV production, Huh7.5 cells were infected with HCV at 37° C. for 2 hr and then incubated with varying concentrations of CP-346086 for 4 days. The levels of apoB and apoE in the media were determined by Western blotting. […] The levels of HCV virions released into the media were initially determined by infectivity assay in cell culture. The naïve Huh7.5 cells were infected with HCV-containing media. At 3 days p.i., the levels of HCV NS3 protein and positive-stranded RNA were quantified by Western blotting and RPA, respectively. […] Similarly, CP-346086 lowered the infectious HCV titers by 1, 2, 3, and 4 orders of magnitude (10, 100, 1,000, and 10,000 times) at concentrations of 6.25, 12.5, 25, and 50 μM, respectively, as illustrated in FIG. 14E.

[3] = system: apoB and triglyceride secretion; conditions: HepG2 cells; cited from earlier work
apoB = apoB in media of HCV-infected Huh7.5 cells treated with inhibitor, Western blotting; format: cell-based; conditions: 1 μM; 4 days
Method: as §1

[4] = system: subgenomic HCV replicon of genotype 2a; test: HCV RNA replication in Huh7.5 cells harboring a subgenomic HCV replicon of genotype 2a; format: cell-based, Hepatitis C virus; conditions: subgenomic replicon genotype 2a, RPA
apoE = apoE in media of HCV-infected Huh7.5 cells treated with inhibitor, Western blotting; format: cell-based; conditions: 4 days
Method: as §1

HCV [5] = test: HCV infection of Huh7.5 cells in the presence of apoE3 or apoC-I protein; format: cell-based, Hepatitis C virus; conditions: increasing concentrations (μg/ml); RPA
Method: With reference to FIGS. 16A and 16B, the effect of recombinant apolipoprotein E3 (apoE3) and purified apoC-I on HCV infection was investigated. Huh7.5 cells were infected with HCV in the presence of increasing concentrations (μg/ml) of apoE3 or apoC-I, as indicated on the top of the figures. At 3-hr p.i., the HCV-infected cells were washed with 1×PBS twice and were incubated with medium for 3 days. With reference to FIG. 16A, the levels of HCV NS3 protein in the cells infected with HCV in the presence of apoE3 were then determined by Western blot analysis using an NS3-specific monoclonal antibody and a cellular beta-actin protein as an internal control. With reference to FIG. 16B, HCV positive-strand RNA in the cells infected with HCV in the presence of apoC-I were quantified by RPA.

COc1ccc([C@@H]2CC(=O)c3c(O)cc(O)cc3O2)cc1O [hesperetin]
levels of HCV virion production (HCV [1]): significantly decreased

O=C(Nc1ccc2c(c1)CCN(Cc1ncn[nH]1)C2)c1ccccc1-c1ccc(C(F)(F)F)cc1 [CP-346086]
lowering of infectious HCV titers (HCV [2]; 6.25 μM): 10 times | lowering of infectious HCV titers (HCV [2]; 12.5 μM): 100 times | lowering of infectious HCV titers (HCV [2]; 25 μM): 1,000 times | lowering of infectious HCV titers (HCV [2]; 50 μM): 10,000 times | reduction of HCV positive-stranded RNA level (HCV [2]; 50 μM, 3 days p.i., RPA): > 95% | reduction of HCV NS3 protein level (HCV [2]; 50 μM, 3 days p.i., Western blotting): > 95% | IC50 [3]: 2.6 nM | apoB secretion (apoB): almost completely blocked | HCV RNA replication [4]: no significant effect | concentration up to which apoE secretion was not reduced (apoE): above 3 μM

O=c1c(O)c(-c2ccc(O)c(O)c2)oc2cc(O)cc(O)c12 [quercetin]
levels of HCV virion production (HCV [1]): significantly decreased

ApoC-I: purified apoC-I protein (TPDVSSALDKLKEFGNTLEDKARELISRIKQSELSAKMREWFSETFQKVKEKLKIDS; UniProt P02654 27-83, looked up)
inhibition of HCV infection (HCV positive-strand RNA) (HCV [5]): inhibited HCV infection in a dose-dependent manner

COc1ccc(Cl)cc1C(=O)NCCc1ccc(S(=O)(=O)NC(=O)NC2CCCCC2)cc1 [glybenclamide]
levels of HCV virion production (HCV [1]): significantly decreased
